The numbers were not newly measured in publication PMC8711562 (Drug Design, Development and Therapy, 2021), which cites them from elsewhere.

The subject of this series is gastric pH. The conditions noted are these: beagles.

For `COc1ccc2[nH]c([S+]([O-])Cc3ncc(C)c(OC)c3C)nc2c1` (stereo not shown) [Omeprazole], the “gastric pH elevated to” value is reported as 6.
